Laboratory results taken from patent US20090062214A1, “Left-Side Glucose Lipid a Analogue” (priority 2004, published 2009).
Where two headings read alike, the source gives them in different places.

Columns and labels:
[1] = system: TNFα production in mice; experiment: Test for inhibitory activity against TNFα production in mice (in vivo); set-up: species or system C3H/HeN mice; details: GalN.LPS, tail vein injection, plasma TNFα after an hour
Procedure: This test was performed according to the method by Y. Endo et al. (British Journal of Pharmacology 128, 5-12 (1999)).
(§1) A group of five C3H/HeN mice (male, 7-week old) known to be highly sensitive to lipopolysaccharide (LPS) was used. Galactosamine (GalN, 1 g/5 mL) and LPS (0.05 mg/5 mL) were each dissolved in normal saline, and they were mixed in equal amounts to prepare a GalN.LPS solution. The prepared GalN.LPS solution was injected into the tail vein in a dose of 10 mL/kg. The test compound was dissolved in a 0.1% aqueous triethylamine solution and the mixture was injected into the tail vein in a dose of 10 mL/kg substantially simultaneously with the injection of the GalN.LPS solution. […] The amount of TNFα produced in the plasma was measured using a commercially available TNFα ELISA kit. The inhibitory activity against TNFα production of the test compound was calculated as an inhibition rate against TNFα produced in response to the GalN.LPS injection. A regression line was obtained from the inhibition rates and the doses for the mice. The ID50 value (a dose at which the inhibition rate is 50%) was calculated from the regression line.

[2] = system: TNFα production in human whole blood; experiment: Test for inhibition against TNFα production in human whole blood (in vitro); type: cell-based
Procedure: This test was performed according to the method by Hartman et al. (D. A. Hartman, S. J. Ochalski and R. P. Carlson; The effects of antiinflammatory and antiallergic drugs on cytokine release after stimulation of human whole blood by lipopolysaccharide and zymosan A: Inflamm. Res., 44, 269 (1995)).
Peripheral blood was obtained from a healthy volunteer in the presence of heparin. 360 μL of whole blood was added to a 96-well block to which 20 μL of a dimethyl sulfoxide solution of the analyte compound was previously added. 20 μL of lipopolysaccharide (LPS) (derived from E. coli 026:B6 available from SIGMA Inc.) (final concentration: 10 ng/mL) was further added thereto as a stimulant, and the mixture was sufficiently mixed and incubated under conditions of 37° C. and 5% CO2 for 6 hours. After completion of the incubation, the mixture was cooled to 4° C. to discontinue the reaction, and the mixture was immediately centrifuged at 2000 rpm for 15 minutes. The supernatant plasma was then separated and collected. The TNFα produced and released in the plasma was measured by an enzyme-linked immunosorbent assay (ELISA) kit (made by Biosource International). The inhibition rate was determined from the amount of cytokine produced in the presence and in the absence of the analyte compound. IC50 values were calculated from the average of the inhibition rates by the least-square method. For comparison, an IC50 value was calculated in the same manner as in the case of the test compound, using a compound described in U.S. Pat. No. 5,935,938 as a comparative compound. The structural formula of the comparative compound is shown.
This test was performed in the same manner as in Test Example 1. The same comparative compound as in Test Example 1 was used.

[3] = system: mouse fatal state after GalN.LPS injection; experiment: Survival test for mouse fatal state (in vivo); set-up: species or system C3H/HeN mice; details: tail vein
Procedure: as §1
This test was performed according to the method by H. Takada (The Journal of Infectious Diseases 162, 428-434 (1990)).
Whether mice were alive or not was observed 72 hours after injection of a GalN.LPS solution, and the survival rate was calculated. The strain, age in week and gender of the mice used, the method of preparing the GalN.LPS solution and the compound solution administered, the administration route, the timing and the like were the same as in Test Example 3. A group of 8 mice was used in the test.

[4] = human whole blood, LPS 10 ng/mL, 6 hours, ELISA, Test Example 1, Table 1, read-out: IC50 (nM), inhibition of TNFα production

Row | Compound | ID50 (mg/kg), inhibition of TNFα production ([1]; Table 4) [mg/kg] | IC50 [2, 4] [nM] | Survival rate (%) of mice after 72 hours ([3]; dose 0.3 mg/kg, Table 7) [%] | Survival rate (%) of mice after 72 hours ([3]; dose 0.3 mg/kg, Table 8) [%] | Survival rate (%) of mice after 72 hours ([3]; dose 0.3 mg/kg, Table 9) [%] | Survival rate (%) of mice after 72 hours ([3]; dose 1 mg/kg, Table 7) [%] | Survival rate (%) of mice after 72 hours ([3]; dose 1 mg/kg, Table 8) [%] | Survival rate (%) of mice after 72 hours ([3]; dose 1 mg/kg, Table 9) [%] | Survival rate (%) of mice after 72 hours ([3]; dose 3 mg/kg, Table 7) [%] | Survival rate (%) of mice after 72 hours ([3]; dose 3 mg/kg, Table 8) [%] | Survival rate (%) of mice after 72 hours ([3]; dose 3 mg/kg, Table 9) [%] | ID50 (mg/kg), inhibition of TNFα production ([1]; Table 5) [mg/kg] | ID50 (mg/kg), inhibition of TNFα production ([1]; Table 6) [mg/kg] | other results
1 | CCCCCC/C=C\CCCCCCCCCC(=O)O[C@H]1[C@H](OC[C@H]2O[C@H](OP(=O)(O)O)[C@H](NC(=O)CC(=O)CCCCCCCCCCC)[C@@H](OCCCCCCCCCC)[C@@H]2O)O[C@H](COC)[C@@H](OP(=O)(O)O)[C@@H]1OCC[C@@H](CCCCCCC)OC [Compound 1, Phosphono 3-O-decyl-2-deoxy-6-O-{3-O-[(R)-3-methoxydecyl]-6-O-methyl-2-O-[(Z)-11-octadecenoyl]-4-O-phosphono-β-D-glucopyranosyl}-2-(3-oxotetradecanoylamino)-α-D-glucopyranoside] | 0.45 | 0.49 | – | – | – | – | – | – | – | – | – | – | – | –
2 | CCCCCC/C=C\CCCCCCCCCC(=O)N[C@H]1[C@H](OC[C@H]2O[C@H](OP(=O)(O)O)[C@H](NC(=O)CC(=O)CCCCCCCCCCC)[C@@H](OCCCCCCCCCC)[C@@H]2O)O[C@H](COC)[C@@H](OP(=O)(O)O)[C@@H]1OCC[C@@H](CCCCCCC)OC [Comparative Compound, reference compound] | 2.12 | – | 25 | 50 | 13 | 63 | 75 | 0 | 100 | 50 | 25 | 3.28 | 1.82 | IC50 ([2]; Homo sapiens, 6 h, read-out: IC50 (nM), inhibition of TNFα production, human whole blood, LPS 10 ng/mL, 6 hours, ELISA, Test Example 1, Table 1): 0.97 nM; IC50 ([2]; Homo sapiens, 6 h, read-out: IC50 (nM), inhibition of TNFα production, human whole blood, LPS 10 ng/mL, 6 hours, ELISA, Test Example 2, Table 2): 2.94 nM; IC50 ([2]; Homo sapiens, 6 h, read-out: IC50 (nM), inhibition of TNFα production, human whole blood, LPS 10 ng/mL, 6 hours, ELISA, Test Example 2, Table 3): 8.24 nM
3 | CCCCCC/C=C\CCCCCCCCCC(=O)O[C@H]1[C@H](OC[C@H]2O[C@H](OP(=O)(O)O)[C@H](OC(=O)CC(=O)CCCCCCCCCCC)[C@@H](OCCCCCCCCCC)[C@@H]2O)O[C@H](COC)[C@@H](OP(=O)(O)O)[C@@H]1OCC[C@@H](CCCCCCC)OC [Compound 8, phosphono 3-O-decyl-6-O-{3-O-[(R)-3-methoxydecyl]-6-O-methyl-2-O-[(Z)-11-octadecenoyl]-4-O-phosphono-β-D-glucopyranosyl}-2-O-(3-oxotetradecanoyl)-α-D-glucopyranoside] | – | – | – | 50 | – | – | 75 | – | – | 100 | – | 0.55 | – | IC50 ([2]; human whole blood, LPS 10 ng/mL, 6 hours, ELISA, Test Example 2, Table 2, read-out: IC50 (nM), inhibition of TNFα production): 0.06 nM
4 | CCCCCC/C=C\CCCCCCCCCCO[C@H]1[C@H](OC[C@H]2O[C@H](OP(=O)(O)O)[C@H](NC(=O)CC(=O)CCCCCCCCCCC)[C@@H](OCCCCCCCCCC)[C@@H]2O)O[C@H](COC)[C@@H](OP(=O)(O)O)[C@@H]1OCC[C@@H](CCCCCCC)OC [Compound 2, Phosphono 3-O-decyl-2-deoxy-6-O-{3-O-[(R)-3-methoxydecyl]-6-O-methyl-2-O-[(Z)-11-octadecenyl]-4-O-phosphono-β-D-glucopyranosyl}-2-(3-oxotetradecanoylamino)-α-D-glucopyranoside] | <0.2 | 0.51 | 38 | – | – | 75 | – | – | 100 | – | – | – | – | –
5 | CCCCCC/C=C\CCCCCCCCCC(=O)O[C@H]1[C@H](OC[C@H]2O[C@H](OP(=O)(O)O)[C@H](NC(=O)CC(=O)CCCCCCCCCCC)[C@@H](OCCCCCCCCCC)[C@@H]2O)O[C@H](CO)[C@@H](OP(=O)(O)O)[C@@H]1OCC[C@@H](CCCCCCC)OC [Compound 3, Phosphono 3-O-decyl-2-deoxy-6-O-{3-O-[(R)-3-methoxydecyl]-2-O-[(Z)-11-octadecenoyl]-4-O-phosphono-β-D-glucopyranosyl}-2-(3-oxotetradecanoylamino)-α-D-glucopyranoside] | 0.96 | 0.65 | 50 | – | – | 100 | – | – | 100 | – | – | – | – | –
6 | CCCCCC/C=C\CCCCCCCCCC(=O)O[C@H]1[C@H](OC[C@H]2O[C@H](OP(=O)(O)O)[C@H](OC(=O)CC(=O)CCCCCCCCCCC)[C@@H](OCCCCCCCCCC)[C@@H]2O)O[C@H](CO)[C@@H](OP(=O)(O)O)[C@@H]1OCC[C@@H](CCCCCCC)OC [Compound 9, Phosphono 3-O-decyl-6-O-{3-O-[(R)-3-methoxydecyl]-2-O-[(Z)-11-octadecenoyl]-4-O-phosphono-β-D-glucopyranosyl}-2-O-(3-oxotetradecanoyl)-α-D-glucopyranoside] | – | – | – | – | 13 | – | – | 38 | – | – | 100 | – | <0.2 | IC50 ([2]; human whole blood, LPS 10 ng/mL, 6 hours, ELISA, Test Example 2, Table 3, read-out: IC50 (nM), inhibition of TNFα production): 0.83 nM
